Experiment [1] relates to Matrix Metalloproteinase-1 (MMP-1). Description: Inhibition of MMP-1 production in PMA induced A2058 cells (ELISA). The format is cell-based. The settings on record: PMA induced A2058 human melanoma cells, 24 h, supernatant ELISA. On the procedure: A2058 cells were induced with 50 nM PMA in absence or presence of different concentrations of LI/DD-II/054A/01 for 24 h as indicated. Secreted MMP-1 concentration in the cell free culture supernatants was measured using MMP-1 ELISA Development Kit (R&D System, Minneapolis, Minn., USA). The MMP-1 concentration in culture supernatants was estimated quantitatively from the standard curve generated using known concentrations of MMP-1. Percentage of MMP-1 inhibition at each concentration of test compound was calculated from the formula: {(Conc. of MMP-1 in PMA induced−Conc. of MMP-1 in the test well)×100}[…]Conc. of MMP-1 in PMA induced wells.
MMP-1 was evaluated in PMA induced human melanoma cells, A2058. Briefly, the cells were cultured in Dulbecco's Modified Eagles Medium (DMEM) with 2 mM Glutamine, 100 U/mL penicillin, […] streptomycin and 10% fetal bovine serum (Hyclone, Logan, Utah). Five thousand cells per well were seeded into a 96-well cell culture plate (Corning, USA) one day before the experiment. The culture media was replaced with fresh DMEM containing 10% fetal bovine serum. […] The MMP-1 concentration in culture supernatant was estimated quantitatively by interpolating the optical densities into the standard curve generated from known concentrations of MMP-1. […]

The subject of a further experiment is PPARγ. Description: Immunoblot of PPARγ in 3T3-L1 adipocytes. The format is cell-based, mouse. The settings on record: immunoblot normalized with actin. The text has this: The inventors have then evaluated the modulation of metabolic biomarkers those are primarily responsible for the adipogenesis processes, insulin resistance in type 2 diabetes, obesity, metabolic syndrome and other metabolic disorders such as Peroxisome proliferator-activated receptor gamma (PPARγ), CD36, adipocyte fatty acid binding protein 4 (FABP4 or aP2), Perilipin, and beta-3 Adrenergic Receptor (β3AR) during adipogenesis process in 3T3-L1 adipocytes by ethyl actate extract (LI/DD-II/054A/01) of Sphaeranthus indicus and 7-hydroxyfrullanolide (LI054A01) using an immunoblot assay. […] The protein extracts were evaluated by immunoblot assay, and the immuno-reactive bands were developed with West-pico chemiluminescent substrate and the blot images were captured in a Kodak Image Station, normalized with expression of actin.
Experimental protocol: Mouse pre-adipocyte 3T3-L1 cells are maintained in Dulbecco's Modified Eagles Medium (DMEM) supplemented with 2 mM glutamine, 4.5 g/L glucose and 10% fetal bovine serum. […] Protein content was measured in Bradford method by using Coomassie blue dye and cell lysates were stored in aliquots at −80° C. until further use. […]
Inhibition of protein expression of biomarker molecules adipocytes in presence or absence of Sphaeranthus indicus extract LI/DD-II/054A/01 and 7-hydroxyfrullanolide (LI054A01) was evaluated in immunoblot assay. […]

As to `C=C1C(=O)O[C@H]2C3=C(C)CCC[C@]3(C)CC[C@@]12O` [LI054A01, 7-α-hydroxy-4,11(13)-eudesmadien-12,6-olide], in experiment [1], the “IC50 of MMP-1” value turned out to be 1.2 µg/mL. In the experiment on PPARγ, the PPARγ protein level entry is recorded as “potently ameliorated”.

Values taken from US9241964B2, “Composition from Sphaeranthus indicus and Garcinia mangostana for the control of metabolic syndrome” (LAILA NUTRACEUTICALS, priority 2009, dated 2016).
